Laboratory results: ChEMBL document CHEMBL2406986, “Correlation of hydrogen-bonding propensity and anticancer profile of tetrazole-tethered combretastatin analogues” (Bioorg Med Chem Lett, 2013)

Key:
Bos taurus = species on record: Bos taurus; experiment: Displacement of [3H]colchicine from bovine brain tubulin at 5 uM after 10 mins relative to control
MCF7 = experiment: Cytotoxicity against human MCF7 cells assessed as growth inhibition after 48 hrs by MTT assay; format: functional, cell-based; details: MCF7, 48 h
A549 = experiment: Cytotoxicity against human A549 cells assessed as growth inhibition after 48 hrs by MTT assay; format: functional, cell-based; details: A549, 48 h
[1] = Cytotoxicity against human H1299 cells assessed as growth inhibition after 48 hrs by MTT assay; format: functional, cell-based; details: NCI-H1299, 48 h
[2] = Inhibition of bovine brain tubulin assembly preincubated for 15 mins followed by GTP addition measured for 20 mins by spectrophotometric analysis; set-up: species or system Bos taurus
HeLa = experiment: Cytotoxicity against human HeLa cells assessed as growth inhibition after 48 hrs by MTT assay; format: functional, cell-based

SMILES	inhibition (Bos taurus) [%]	IC50 (MCF7) [µM]	IC50 (A549) [µM]	IC50 [1] [µM]	IC50 [2] [µM]	IC50 (HeLa) [µM]
COc1ccc(-c2nnnn2-c2cc(OC)c(OC)c(OC)c2)c(O)c1O	62	6.6	6.7	8.8	2.5	0.95
COc1ccc(-c2nnnn2-c2cc(OC)c(OC)c(OC)c2)c(O)c1N	69	2.9	0.52	4	2.2	0.9
COc1ccc(/C=C\c2cc(OC)c(OC)c(OC)c2)cc1O [COMBRETASTATIN A4]	–	0.098	0.28	0.0062	–	–
COc1ccc(-c2nnnn2-c2cc(OC)c(OC)c(OC)c2O)cc1	–	72	> 100	40	> 20	92
COc1ccc(-c2nnnn2-c2cc(OC)c(OC)c(OC)c2)c(O)c1	52	8.2	6.4	7.9	2.7	2.4
COc1ccc(-c2nnnn2-c2cc(OC)c(OC)c(OC)c2O)c(O)c1	–	46	50	49	> 20	45
